In US6130250A, “Veterinary use of a pleuromutilin derivative” (priority 1996, dated 2000):
Counter-ions that a name gives are not always drawn. Like-named read-outs stand apart in the source and are kept apart here.

Experiments:
Serpulina hyodysenteriae = test: MIC determination on agar, 10 S. hyodysenteriae strains; format: cell-based
S. hyodysenteriae = test: MIC determination by agar dilution, 10 strains from porcine faeces; format: cell-based, Serpulina hyodysenteriae; settings: for MIC: Brachyspira hyodysenteriae
Protocol: Minimum inhibitory concentrations (MICs) are determined against 10 strains of S. hyodysenteriae isolated from porcine faeces, by the agar dilution method. NCTC (National Collection of Type Cultures) strains or reference strains are used as controls in all MIC tests. The agar medium for S. hyodysenteriae consists of BAB2 (Unipath CM271) containing 7% whole defibrinated sterile sheep blood. All antimicrobial agents are tested in doubling dilutions. Prepared antibiotic dilutions are added to an appropriate volume of MH agar, previously cooled to 50° C., mixed and 20 ml volumes poured. All S. hyodysenteriae incubations are performed in an anaerobic work station at 37° C. (+/-0.5° C.) (Don Whitley Scientific) which provides a strict anaerobic atmosphere comprising 80% nitrogen, 10% hydrogen and 10% carbon dioxide. All other incubations are performed at 37° C. All strains are incubated in an […] atmosphere at 37° C. for 24 hours. The numbers of the organisms are adjusted to an optical density (OD) equivalent to 1×10^8 colony forming units (cfu) per ml, using MH broth as a blank. The antibiotic containing plates are inoculated in duplicate using a multipoint inoculator (Denley Instruments) which delivers a plate inoculum of approximately 1 μl giving an inoculum of 10^4 -10^5 cfu per spot for all strains (Amon, J. Antimicrob. Chemother. 21 [1988] 701-710; Ericsson et al., Acta Pathol. Microbiol. et Immunol. Scand. 217 [1971] (B) Suppl., 1-90). Control plates are incubated under the same conditions as the test plates. The MICs are read after 24 and 48 hours, the latter being the definitive reading. The MIC is defined as the lowest concentration of antibiotic on which there is no growth, disregarding a single colony or a faint haze caused by the inoculum (National Committee for Clinical Laboratory Standards [1989], Antimicrobial Susceptibility Testing, NCCLC Publications SC3, Villanova, Pa., USA).

Mycoplasma hyosynoviae = test: MIC assay, 7 field isolates of Mycoplasma hyosynoviae; format: cell-based; settings: for MIC: Mycoplasma, 7 field isolates
Protocol: Tissue samples are obtained from the lungs of pigs from various enzootic pneumonia of pigs (EPP)--affected herds. Samples are shipped on dry ice for culture. Four isolates from lung samples initially isolated for recovery of Mycoplasma hyopneumoniae were reisolated for Mycoplasma hyosynoviae after it had been noted from the lung samples submitted (re-stored at -70° C.), during culture for M. hyopneumoniae, that some samples yielded luxuriant growth of colonies having the typical morphology of Mycoplasma hyosynoviae. Three further isolates were recovered from other lung samples provided. All isolates were serologically identified by disc growth inhibition with specific rabbit antiserum raised against Mycoplasma hyosynoviae. A commerically available solid medium (Mycoplasma Experience Ltd.) is used to isolate M. hyosynoviae from lung tissue. A liquid medium (Mycoplasma Experience Ltd.) containing phenol red and arginine (pH 7.0) is used for the MIC assay.
Stock solutions of test compound are prepared at 1 mg/ml concentration in deionised water, sterilised by filtration through 0.2μ pore size membrane filters (Sartorius Minisart, N) and stored at -20° C. For use in the MIC tests the stock solutions are diluted in liquid medium to double the final concentrations required. MIC tests are carried out according to the method of Tanner and Wu, Avian Diseases 36 (1992) 714-717. Actively growing challenge cultures are prepared either from 1 ml aliquots of broth cultures stored at -70° C. or from cultures stored on agar at -70° C. The challenge cultures are diluted to give a target titre of 10^3 to 10^5 colour changing units/ml. 0.1 ml aliquots of challenge inocula are mixed with 0.1 ml aliquots of antibiotic dilution in microtitre wells. Each microtitre plate contains uninoculated media at pH 7.6 (end point control) and antibiotic-free inoculated challenge controls. All plates are sealed with adhesive film and incubated aerobically at 36° C. MICs are recorded when the colour change in the challenge control wells matches the pH of the end point control. The MIC is the lowest concentration showing no colour change.

Mycoplasma gallisepticum = test: Challenge study, treatment of Mycoplasma gallisepticum infection; format: in vivo, male broiler chicks; settings: for mortality: valnemulin all three concentrations, tiamulin 0.05%
Source text: Groups of male broiler chicks are infected with a virulent strain of Mycoplasma gallisepticum (MG) and each group medicated respectively with valnemulin at a concentration of 0.0125%, 0.025%, 0.05%, tiamulin at the same concentration, tylosin 0.05% and a […], spectinomycin combination (Linco-Spectin) 0.083%. There is also one infected group left untreated and an uninfected group. The chicks are infected at two days of age by the injection of 3.4×10^5 organisms into each lung. Medication in the drinking water is commenced 24 hours later for three successive days except for Linco-Spectin with which treatment was continued for 5 days.

Pasteurella multocida = test: MIC against Pasteurella multocida isolates; format: cell-based; settings: for MIC: Pasteurella multocida, 10 isolates
Protocol: The minimal inhibitory concentration (MIC) of valnemulin hydrochloride against recent isolates of Pasteurelia multocida, Haemophilus pleuropneumoniae and Haemophilus parasuis originating from porcine respiratory material is determined and compared with tiamulin. […] Three of the Pasteurella isolates were toxigenic strains of Pasteurella multocida. For H. pleuropneumoniae and H. parasuis, on the day before testing a single loopful of each of the pure cultures is inoculated into 10 ml of Todd & Hewitt broth (Unipath CM190) containing 1% donor calf serum and 2 mg per ml of nicotinamide adenine dinucleotide (NAD). For P. multocida, […] a single loopful of each of the pure cultures is inoculated into 10 ml of nutrient broth No. 2 (Unipath CM67) containing 1% donor calf serum. Each of the prepared broth cultures are incubated for 18 hours at 37° C. in 10% CO2. […] For each test compound, standard control cultures of Oxford Staphylococcus aureus NCTC 6571 are also set up to validate the results of the MIC tests. In each case, broth cultures set up from the control organisms are identical to those of the organisms under test. Valnemulin is a hydrochloride, tiamulin is used as the hydrogen fumarate. […] Sensitised agar (Oxoid CM409) containing lysed horse blood (Oxoid SR50) is prepared according to the manufacturer's recommendations and adjusted to pH 7.4 it necessary. […] Four replicate plates are prepared from each dilution. […] After inoculation the growth of the organisms is examined initially by eye followed by microscopic examination on a stereo zoom microscope. The MIC value is taken as the lowest concentration of test compound at which no growth can be detected at the point of inoculation on all four plates by microscopic examination.

C=C[C@]1(C)C[C@@H](OC(=O)CSCCN(CC)CC)[C@]2(C)[C@H](C)CC[C@]3(CCC(=O)[C@H]32)[C@@H](C)[C@@H]1O [tiamulin hydrogen fumarate]
number of strains with MIC 0.125 μg/ml (Serpulina hyodysenteriae; 10 S. hyodysenteriae strains): 6
number of strains with MIC 0.250 μg/ml (Serpulina hyodysenteriae; 10 S. hyodysenteriae strains): 1
number of strains with MIC 0.500 μg/ml (Serpulina hyodysenteriae; 10 S. hyodysenteriae strains): 1
number of strains with MIC 1 μg/ml (Serpulina hyodysenteriae; 10 S. hyodysenteriae strains): 2
MIC (S. hyodysenteriae): 0.3 µg/mL
MIC (Mycoplasma hyosynoviae): 0.0025 to 0.025 µg/mL
lesions (Mycoplasma gallisepticum; tiamulin and tylosin): only a few
mortality (Mycoplasma gallisepticum): no more than 5%
MIC (Pasteurella multocida; 18 h, read-out: MIC mean): 9.2 µg/mL
MIC (Pasteurella multocida; read-out: MIC range): 4 to 16 µg/mL

C=C[C@]1(C)C[C@@H](OC(=O)CSC(C)(C)CNC(=O)[C@H](N)C(C)C)[C@]2(C)[C@H](C)CC[C@]3(CCC(=O)[C@H]32)[C@@H](C)[C@@H]1O [valnemulin hydrochloride, 14-O-[1-[(R)-2-amino-3-methylbutyrylamino]-2-methylpropan-2-ylthioacetyl]mutilin]
number of strains with MIC 0.0156 μg/ml (Serpulina hyodysenteriae; 10 S. hyodysenteriae strains): 2
number of strains with MIC 0.0312 μg/ml (Serpulina hyodysenteriae; 10 S. hyodysenteriae strains): 4
number of strains with MIC 1 μg/ml (Serpulina hyodysenteriae; 10 S. hyodysenteriae strains): 1
MIC times less than those of tiamulin (Serpulina hyodysenteriae; S. hyodysenteriae strains): 2-32 times
susceptibility of S. hyodysenteriae strains (Serpulina hyodysenteriae; all strains): highly susceptible
MIC (S. hyodysenteriae): 0.1 µg/mL
susceptibility of S. hyodysenteriae strains (S. hyodysenteriae; all strains): susceptible
most active of the agents tested by (S. hyodysenteriae; vs tiamulin, lincomycin, tylosin, dimetridazole): 3-600 fold
MIC (Mycoplasma hyosynoviae): 0.0001 to 0.0005 µg/mL
sensitivity of isolates in words (Mycoplasma hyosynoviae; seven field isolates): much higher than for the other two compounds
overall efficacy vs comparators (Mycoplasma gallisepticum; valnemulin 0.025% and 0.05% in drinking water): at least as good as or better than tiamulin at 0.05% or tylosin at 0.05% and very much better than Linco-Spectin
recovery of Mycoplasma at 23 days (Mycoplasma gallisepticum; valnemulin 3 groups, tylosin 0.05%): not recovered
mortality (Mycoplasma gallisepticum): no more than 5%
weight gains (Mycoplasma gallisepticum; valnemulin at all concentrations): higher than for the tiamulin treated groups and equal to the tylosin group
lesions (Mycoplasma gallisepticum; valnemulin highest and lowest doses): Lesions were not seen
mean increase in activity compared with tiamulin (Pasteurella multocida; P. multocida): two and a half fold
MIC (Pasteurella multocida; 18 h, read-out: MIC mean): 3.8 µg/mL
MIC (Pasteurella multocida; read-out: MIC range): 2 to 8 µg/mL
